{"source": "paper PMC9871236", "about": "“Differentiated HT22 cells as a novel model for in vitro screening of serotonin reuptake inhibitors” (Frontiers in Pharmacology, 2023)", "target": "T1, serotonin transporter (SERT) (Mus musculus, UniProt Q60857)", "T1 construct": "gene Slc6a4", "T1 sequence (Q60857 whole entry)": "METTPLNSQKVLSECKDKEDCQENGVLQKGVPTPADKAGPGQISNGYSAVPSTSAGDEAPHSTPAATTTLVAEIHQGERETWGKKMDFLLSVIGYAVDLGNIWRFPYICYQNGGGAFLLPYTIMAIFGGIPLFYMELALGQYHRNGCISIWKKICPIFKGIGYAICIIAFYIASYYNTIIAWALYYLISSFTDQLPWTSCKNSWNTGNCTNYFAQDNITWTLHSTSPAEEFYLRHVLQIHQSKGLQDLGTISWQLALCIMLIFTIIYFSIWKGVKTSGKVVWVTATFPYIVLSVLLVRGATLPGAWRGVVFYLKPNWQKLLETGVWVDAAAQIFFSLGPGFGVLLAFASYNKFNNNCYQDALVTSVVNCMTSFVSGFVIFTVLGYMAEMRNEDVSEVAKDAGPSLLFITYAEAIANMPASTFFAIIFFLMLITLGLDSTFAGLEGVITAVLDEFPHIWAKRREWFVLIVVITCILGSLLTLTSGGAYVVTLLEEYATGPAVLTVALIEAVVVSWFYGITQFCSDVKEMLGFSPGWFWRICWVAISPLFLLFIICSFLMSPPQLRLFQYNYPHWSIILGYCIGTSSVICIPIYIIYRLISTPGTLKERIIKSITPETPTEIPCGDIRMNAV", "assay": "fluoxetine-sensitive accumulation of fluorescent substrate ([…]) in HT22 cells", "format": "cell-based"}
{"smiles": "CN(C)c1ccc(-c2cc[n+](C)cc2)cc1", "note": "[APP+, 4-(4-(dimethylamino)phenyl)-1-methylpyridinium iodide]", "values": [{"measurement": "fluoxetine-sensitive accumulation of fluorescent substrate (10 uM) in HT22 cells", "result": "A significant increase in APP^+ reuptake was detected in differentiated HT22 cells compared to undifferentiated cells"}]}
